Tests used:
[1] = Ross-Miles foam height test (ASTM D1173); type: physicochemical; details: for Ross Miles Foam Height, millimeters, Initial: Initial (0 sec)
Experimental: A) Ross-Miles Foam Height Test: This test is carried out according to the protocol of ASTM […].

[2] = Surface tension and critical micelle concentration (Wilhelmy plate); type: physicochemical; details: for Surface Tension: 0.1 wt % in water; for Critical Micelle Concentration: in de-ionized water
Experimental: B) Surface Tension and Critical Micelle Concentration (CMC) Measurement. For this test the surface tension of a surfactant-water solution is measured while incrementally adding the surfactant to de-ionized water. Results are measured in terms of dyne/centimeters using a Wilhelmy plate. Results are recorded versus surfactant concentration. The Critical Micelle Concentration is the point at which an increase in surfactant concentration no longer results in a change in surface tension.

[3] = Gel range in water at 23 C; type: physicochemical; parameters: key: L = Liquid; G = Gel; TL = Thick Liquid
Experimental: One way the industry expresses a tendency of a surfactant to cause gels is a “gel range.” A typical gel range describes a percentage of samples that form gels, out of a number of samples, each having increasing surfactant concentration. […] A sample forms a gel when it is non-pourable for at least five seconds at 23° centigrade (° C.) when its container is inverted 180° so the container's open spout or mouth faces down. For many applications, a surfactant ideally has no gel range.
D) Gel range: Ten surfactant solutions are made using 0%, 10%, 20%, 30%, 40%, 50%, 60%, 70%, 80%, 90% water. […] The test is run at 23 C.

[4] = Pour point test (ASTM D97); type: physicochemical
Experimental: C) Pour Point Test: This test is carried out according to the protocol of ASTM Test D97.

[5] = Formula stability with LAS, sodium citrate and water; type: physicochemical; parameters: key to Formula stability: S = Stable; U = Unstable
Text: When mixed with dodecyl benzene sulfonic acid (sodium salt), and sodium citrate in water, the surfactants of the present invention show enhanced formula stability relative to conventional surfactants.

[6] = Cleaning of cross-linked triglycerides (Gardner scrubber, soiled vinyl tile); parameters: key to Arbitrary Gray Value: mean gray value of tile image (ImageJ); details: 0.5% by weight in water; 120 back-and-forth strokes; higher = better cleaning
Experimental: Test panels coated with mixtures of triglycerides and cross-linked triglycerides were prepared and evaluated using the following procedure. Cobalt Naphthenate was used as a catalyst to accelerate the oxidation of vegetable oil to give a hard varnish. Carbon black is added to the varnish to enable easy visual comparison of the ability to clean the cross-linked triglyceride from the surface.
Substrate Panels: White Vinyl Floor Tile: Tarket Corporation Azrock™ VS304-3 (6913) cut to 4¼×4¼ inch (to fit the Gardner Linear Motion Scrubber).
Soil Formulation: 100 grams Canola Oil (Food Grade, 100%, Kroger Co. Cincinnati, Ohio 45202); 2 grams Acetylene Carbon Black (Cat #39724, Alfa Aesar; Surface area=74 sq m/g); 20 grams drying agent: Cobalt Naphthenate Solution (Aldrich Cat #54,457-4, CAS #61789-51-3) (Comes as a 6% solution in petroleum solvent); Oven: Convection oven set at 160° F.
Scrubbing Tester: Gardco washability & Wear Tester; Linear Motion Test Equipment; Model D12-V Cat #WA-2164 (Paul N. Gardner Company, Inc. 316 N.E. First Street, Pompano, Beach, Fla. 33060.
Sponges: “Do-It” Cellulose Sponge, 1⅝ in thick, cut to 3″×4″. Manufactured by Bloch/New England for HWI, Fort Wayne, Ind. 46801;
Paint Brushes: Economy Chip Brush 1 Inch. www.lgsourcing.com Model #0106; Item #103407 obtained from Lowes, Inc. L. G. Sourcing, Inc. P.O. Box 1535 North Wilkseboro, N.C. 28659
Reflectance Meter: HunterLab ColorQuest XE
Prepare a stock solution by mixing 98 grams of canola oil (food grade) with 2.0 g acetylene-based carbon black (Cat #39724, Alfa Aesar; Surface area=74 sq m/g). Mix with a disperser at 2000 rpm for 15 min. (We used a Caframo Model BDC 3030 with a 0.50 dispersing blade).
Add 20.0 grams Cobalt Naphthenate Solution and mix well (by hand, using a glass stir rod).
Place 1.6 grams soil per 4×4 inch tile.
Paint to a thin film using a clean 1-inch economy brush. Use several strokes to get to an even coating. Use a clean, dry brush for each application. (After the application, each brush can be cleaned with acetone, dried, and then re-used).
Place in a convection oven set at 160 F for 16 hours. We place the panels in an oven at 4:00 p.m, and then remove the panels at 8:00 a.m. the next morning. Let the panels cool for 1 hour.
Use the panels within 10 days
Place a panel in the Gardner Scrubber
[…] (We use 5.0 grams surfactant diluted to 500 mL water).
Prepare a sponge by rinsing several times in cold tap water. Completely squeeze out the sponge by hand.
After each test, rinse out the sponge 15-20 times (by repeated sorption and squeezing) until there is no noticeable surfactant solution left (usually indicated by a lack of foam).
Pour 500 mL of surfactant solution into a beaker
Place the sponge into the beaker—allowing it to soak up as much surfactant as possible.
Place the sponge into the Gardner Scrubber.
Pour the remaining liquid (approx 400 mL) over the test panel in the scrubber. There should be enough liquid to just cover the test panel.
Program the scrubber to perform 120 back-and-forth strokes (for a total of 240 linear strokes). We define each back-and-forth stroke as “1 stroke”
Remove the panel rinse with tap water
Clean the Gardner scrubber by rinsing with tap water.
Clean the sponge by squeezing it out under tap water 20-30 times until clean.
Remove excess water from the sponge by squeezing as much liquid out as possible.
After the panel is dry, either take pictures (for visual comparison of cleaning) or measure the reflectance using the Xyy mode of a Hunter Colorimeter. Alternatively, the mean gray value can be obtained by taking a picture of the tiles and processing computer image with ImageJ™ software, which is distributed freely by the National Institute of Health (nih.gov).

[7] = system: Daphna magna; test: 48-hour acute toxicity to Daphnia; type: in vivo
Text: The study procedures and test methods were based on the recommendations of the following guidelines: […]

[8] = Cloud point; type: physicochemical
[9] = system: Desmondesmus subspicatus; test: Fresh water algal growth inhibition test (OECD 201); type: cell-based; details: growth rate
Text: Organization for Economic Cooperation and Development (OECD): OECD Guidelines for the Testing of Chemicals, “Freshwater Alga and Cyanobacteria, Growth Inhibition Test”, Procedure 201, adopted 23 Mar. 2006; European Economic Community (EEC): […] OECD Guidelines for the Testing of Chemicals, “Freshwater Alga and Cyanobacteria, Growth Inhibition Test”, Procedure 201, adopted 23 Mar. 2006; European Economic Community (EEC): […]

Substance	Ross Miles Foam Height, millimeters, 5 Minutes [1]	Ross Miles Foam Height, millimeters, Initial [1]	Surface Tension [2]	Critical Micelle Concentration [2]	Gel Range, Percent Surfactant in Water at 23 C. ([3]; 10% surfactant in water)	Gel Range, Percent Surfactant in Water at 23 C. ([3]; 20% surfactant in water)	Gel Range, Percent Surfactant in Water at 23 C. ([3]; 30% surfactant in water)	Gel Range, Percent Surfactant in Water at 23 C. ([3]; 40% surfactant in water)	Gel Range, Percent Surfactant in Water at 23 C. ([3]; 50% surfactant in water)	Gel Range, Percent Surfactant in Water at 23 C. ([3]; 60% surfactant in water)	Gel Range, Percent Surfactant in Water at 23 C. ([3]; 70% surfactant in water)	Gel Range, Percent Surfactant in Water at 23 C. ([3]; 80% surfactant in water)	Gel Range, Percent Surfactant in Water at 23 C. ([3]; 90% surfactant in water)	Pour Point [4]	cloud point [8]	other results
2EH(PO)3(EO)6.8 [Example 2]	5 millimeters	115 millimeters	32 dyne/centimeters	2400 ppm	L	L	L	L	L	L	L	L	L	50 ° F.		
2EH(PO)11(EO)11 [Example 5]	15 millimeters	75 millimeters	30 dyne/centimeters	300 ppm	L	L	L	G	G	G	G	G	L	36 ° F.		Formula stability ([5]; 15% LAS/0% Na Cit in water): S; Formula stability ([5]; 15% LAS/1% Na Cit in water): S; Formula stability ([5]; 15% LAS/2% Na Cit in water): S; Formula stability ([5]; 15% LAS/4% Na Cit in water): U; formula stability (in words) ([5]; cleaning formulations, without hydrotrope): stable
C8-16(PO)2.5(EO)5 [reference compound]																Arbitrary Gray Value [6]: 48
C9(PO)4(EO)8 [Example 10]															55.3 C	48-hour Acute Toxicity to Daphna magna (EC50-50 hour) [7]: 29.2 µg/mL; Fresh Water algal growth inhibition test with Desmondesmus subspicatus ErC50/0-3 [9]: 26 mg/L
2EH(PO)9(EO)9 [Example 4]	5 millimeters	50 millimeters	30 dyne/centimeters	400 ppm	L	L	L	TL	G	G	G	G	L	37 ° F.		
C9(PO)4(EO)5.5															31.0 C	
C9(BO)1(EO)5															21.4 C	
2EH(PO)5(EO)3 [Example 6]																48-hour Acute Toxicity to Daphna magna (EC50-50 hour) [7]: 33.6 µg/mL; Fresh Water algal growth inhibition test with Desmondesmus subspicatus ErC50/0-3 [9]: 31.9 mg/L
